How the values were obtained:
KPC cells [1] = assay: Cytotoxicity MTS assay in KPC cells; settings: 500 μM, 24 h
Method: The DACHPt silicasome was tested in a list of cancer cell lines to determine the in vitro killing effect, using a MTS assay. […] The MTS assay was conducted with free DACHPt and oxaliplatin as controls. Data are expressed as mean±SD. n=3.
The MTS assay was performed at 24 h after the treatment with oxaliplatin or DACHPt in KPC cells. Data represents mean±SD, n=3.
Cytotoxicity testing of free Pt drugs or drug-laden silicasomes was performed by using a standard MTS assay (CellTiter 96© AQueous One Solution Cell Proliferation Assay, Promega). PDAC cells were plated at a density of 5×10^3 cells per well in a 96-well plate and cultured for 24 h before the medium was replaced with fresh medium containing free OX, free DACHPt or DACHPt laden silicasome at indicated concentrations. Non-treated cells were used as control. After treatment for 48 h, the medium was replaced with 100 μL of fresh medium containing MTS solution (5:1, v/v medium/CellTiter 96© Aqueous stock solution), and the cells were further cultured at 37° C. for 1 h. The absorbance of the culture wells at 490 nm was recorded by a microplate reader (M5e, Molecular Device, USA). Wells receiving the MTS solution without cells were used as blank. The relative cell viability (%) is [(the absorption of treated well−blank)/(the absorption of control well−blank)]×100%.

KPC cells [2] = assay: Vaccination study with chemo-induced dying KPC cells, re-challenge on contralateral side; settings: for infiltration by CD8^+ T-cells / number of Foxp3^+ regulatory T cell (Treg) / increase in CD8^+/Tregs cell ratio compared to PBS control: IHC of contralateral tumors; for increase in CD8^+/Tregs cell ratio compared to PBS control: day 26; for tumor growth on the contralateral side: vaccination with drug-treated dying KPC cells, p<0.05
Method: In order to determine whether these in vitro ICD markers actually represent an in vivo immunogenic effect as specified by a consensus ICD document^[26], we also performed a vaccination study in a syngeneic KPC animal model. Suspensions of dying tumor cells, generated by oxaliplatin or DACHPt treatment for 24 h, were subcutaneously injected on 2 occasions (7 days apart) in left flank of immunocompetent B6129SF1/J mice. This was followed by tumor re-challenge on the contralateral side using untreated KPC cells (FIG. 4, panel C).
Moreover, we also validated the ICD effect of DACHPt in a vaccination experiment, using a published protocol^[26]. Briefly, eight million KPC cells were seeded in a tissue culture dish. After cellular attachment, DACHPt or free oxaliplatin (500 μM) were added for 24 h. Cells were collected and washed before being resuspended in 0.8 mL cold PBS. For vaccination, each mouse received subcutaneous injection (SC) of a 100 μL suspension of chemo-treated cells in the right flank. Control animals received PBS only. The vaccination was repeated after 7 days. Fourteen days after the 1st vaccination, the same mice received the SC injection of healthy KPC cells (1×10^6 cells) in the contralateral side. Tumor growth was measured by a digital caliper every 2-3 days. At the conclusion of the vaccination experiment (Day 26), animals were sacrificed and the tumors collected for IHC immunophenotyping of CD8^+ T cells and FoxP3^+ Treg cells. Primary antibodies to CD8 (#14-0808-82, 1:100) and FoxP3 (#13-5773-82, 1:200) were purchased from ThermoFisher. […] The slides were scanned and images were assessed by using Aperio ImageScope software (Leica).

[3] = Safety assessment by H&E histology of bone marrow and major organs (efficacy study)
Method: KPC-luc cells (˜1×10^6) were orthotopically injected into the pancreas in mice. […] The control includes saline as well as free oxaliplatin. […] Tumor-bearing mice received IV injection of the indicated therapy every 3 days for a total of 3 administrations. Before animal sacrifice (72 h post the last IV injection), the mice received intraperitoneal injection of D-luciferin, followed by ex vivo bioluminescence imaging using an IVIS imaging system. Primary tumor and major organs (e.g. sternum, heart, liver, spleen, lung and kidneys) were harvested and fixed in 10% formalin, followed by paraffin embedding and sectioning to provide 4 μm slices for histological analysis in the UCLA Translational Pathology Core Laboratory (TPCL). H&E staining was performed to look at the pathological abnormality in mice receiving different treatments. The H&E slides for toxicity assessment were read in a blinded fashion by an experienced veterinary pathologist.

calreticulin (CRT) = assay: Surface CRT expression in KPC cells (immunofluorescence, flow cytometry); assay type: cell-based, murine; settings: 500 μM, 24 h
Method: Surface CRT expression was visualized by immunofluorescence (IF) staining using an anti-CRT primary antibody, followed by the incubation with Alex488 conjugated secondary antibody. Briefly, ˜1.5×10^4 KPC cells were seeded into an 8-well confocal chamber slide. After 24 h, the cell culture medium was replaced with fresh medium containing the chemo agents, following which the cells were incubated for another 24 h. The cells were washed twice in cold PBS and fixed with 4% paraformaldehyde (PFA) at room temperature (r.t.) for 15 mins. After fixation, the cells were washed twice with cold PBS and blocked with 1% BSA in PBS for 0.5 h. The cells were incubated with anti-CRT primary antibody (ab2907, 1:200) in 200 μL blocking solution at 4° C. overnight, followed by washing with PBS and staining with secondary antibody (Alex488 conjugated goat anti-rabbit secondary antibody, A-11008, 1:1000) together with the nuclear dye, Hoechst 33342, at r.t. for 1 h. The cells were washed with PBS, then imaged by using a Leica SP8-MD confocal microscope under the 100× objective lens.
Surface CRT expression was measured by flow cytometry as previously described^[24a]. Briefly, 7.5×10^4 KPC cells were seeded into 24-well plates. […] After washing in cold PBS, the cells were assessed in a LSRII flow cytometer (BD Biosciences). […]

orthotopic KPC tumor [4] = assay: Survival study in orthotopic KPC model w/wo anti-PD-1; assay type: in vivo, mice; settings: agent alone; Pt 2 mg/kg IV, anti-PD-1 100 μg IP; Kaplan-Meier, Log Rank
Method: Kaplan-Meier plots were used to display the survival rate of the different animal groups (n=5-7, *p<0.05, Log Rank test).
Tumor-bearing mice were randomly assigned into 6 groups (n=5-7) and received IV injection of Pt drug formulations twice per week as designed in FIG. 6. Anti-PD-1 antibody was injected at 100 μg/animal intraperitoneally two days later after each Pt chemo injection. To assess survival rate, animals were monitored daily up to the stage of spontaneous death or approaching moribund status based on the criteria of extensive abdominal ascites, severe dehydration, significant weight loss (>20%), extreme weakness or inactivity^[4, 21, 30] The survival data were plotted as Kaplan-Meier curves, followed by statistical analysis by Log Rank testing (Mantel-Cox), using GraphPad Prism 7.00 software.

[5] = PK study, plasma Pt by ICP-MS after single IV injection; settings: Pt dose 4.95 mg/kg, one-compartment model
Method: IV injection of non-encapsulated oxaliplatin (at identical Pt molar dose) served as the free drug control because free DACHPt leads to drug precipitates when interacting with Cl ions in the blood^[7b]. Blood collection was performed at 5 mins, 3 h, 6 h, 24 h and 48 h after IV injection, followed by ICP-MS quantification.
The PK study was performed on 10-12-week-old healthy female B6129SF1/J mice. […] After separation of the plasma fraction, the plasma samples were digested with HCl:HNO3 3:1, v/v) in a hot-block, before replenishment in 2% HNO3 for ICP-MS analysis of the Pt content. The PK data were analyzed by PKSolver software, using a one-compartment model^[4].

HMGB1 = HMGB1 release from KPC cells (ELISA); assay type: cell-based, murine; settings: 500 μM, 24 h
Method: Surface CRT expression was measured by flow cytometry as previously described^[24a]. Briefly, 7.5×10^4 KPC cells were seeded into 24-well plates. After cell attachment, KPC cells were treated with free oxaliplatin and DACHPt (500 μM), for 24 h. The loosely attached cells were combined with trypsin-treated at adherent cells. The cells were washed in cold PBS and then stained on ice with a primary anti-CRT antibody (Abcam, ab2907, 1:140) in 200 μL BD staining buffer for 0.5 h. The cells were washed in cold PBS and stained with an […] secondary antibody (LifeScience Technologies #A21244) for 30 min on ice. After washing in cold PBS, the cells were assessed in a LSRII flow cytometer (BD Biosciences). In the same experiment, the cell culture media were spun down to collect the supernatants for HMGB1 detection by an ELISA kit (Catalog #ST51011, IBL International GmbH), according to the manufacture's instruction.

orthotopic KPC tumor [6] = assay: Anti-PDAC efficacy in orthotopic KPC model; assay type: in vivo, B6129SF1/J mice; settings: Pt 2 mg/kg IV every 3 days, 3 administrations, day 17
Method: An efficacy study was performed by IV injection of the silicasome carrier eight days after orthotopic KPC implantation in the pancreas of B6129SF1/J mice (FIG. 3, panel D). This corresponds to beginning the treatment at a primary tumor size of 5-10 mm in the absence of macro-metastases^[21]. IV injections were repeated every 3 days for a total of 3 repeats. The control groups included animals receiving IV saline or free oxaliplatin. The tumor growth at the primary and metastatic sites was followed by IVIS bioluminescence imaging up to conclusion of the experiment on day 17 (FIG. 3, panel D, right).
KPC-luc cells (˜1×10^6) were orthotopically injected into the pancreas in mice. […] The control includes saline as well as free oxaliplatin. This dose arrangement is in agreement with the literature^[27]. Tumor-bearing mice received IV injection of the indicated therapy every 3 days for a total of 3 administrations. Before animal sacrifice (72 h post the last IV injection), the mice received intraperitoneal injection of D-luciferin, followed by ex vivo bioluminescence imaging using an IVIS imaging system. […] The H&E slides for toxicity assessment were read in a blinded fashion by an experienced veterinary pathologist.

[7] = Pt drug loading of MSNP/silicasome (EE %, LC %) by ICP-MS/ICP-OES; assay type: physicochemical; settings: DACHPt incubated with bare MSNP, Pt:MSNP 1:5 w/w
Method: In various embodiments the silica nanoparticles are loaded with platinum-based drugs using a combination of coordination and electrostatic interactions. Since the silanol group density on the silica nanoparticle surface(s) (e.g., pore surfaces) an important role in the surface binding of the activated platinum compound (e.g., DACHPt) (see FIG. 2), it is desirable to control the pH during drug loading. Thus, the loading efficiency and capacity was optimized through control of. pH, incubation time, the soaking process, and variation of the drug/particle ratio, etc. Thus, for example, 20 mg MSNP resuspend in 1 mL HEPES buffer (0.1 M, pH 8.5) was mixed with DACHPt complex (4 mg Pt, equal to 8 mg OX). The mixture was sonicated in water bath sonication for 10 mins and then spun down at 15 K rpm for 10 mins. Non-bound Pt in the supernatant, as detected by ICP-OES was used to determine the loading capacity [%=(total Pt—Pt in supernatant)/amount of MSNP*100} and loading efficiency [%=(total Pt—Pt in supernatant)/total Pt*100].
Sixty-five nm bare MSNPs were synthesized at 18 L scale and purified by extensive acidic ethanol washing to remove the CTAC detergent, as reported previously^[4b]. In order to determine the optimal loading condition, we experimented with multiple rounds of drug loading to find the optimal pH, incubation time, sonication condition, and particle/drug feed ratio, etc. Details of the protocol optimization appear online (FIG. 8). In the case of DACHPt loading, purified MSNP (20 mg) from ethanol stock solution was spun at 15,000 rpm for 15 min, and resuspend in 1 mL HEPES buffer (200 mM, pH 8.5). The MSNP suspension was spun down and resuspend in 0.5 mL HEPES buffer (200 mM, pH 8.5). Then, 160 μL DACHPt solution (25 mg/mL, e.q. Pt) and 340 μL pure H2O were added to the MNSP suspension (40 mg/mL, 0.5 mL). The mixture was sonicated for 10 min. In a sonication water bath. The DACHPt-laden MSNPs were spun down at 15,000 rpm for 12 min, followed by collecting the supernatant for Pt elemental analysis by ICP-MS. […]

Structure (SMILES)	killing of cells / compromised cell viability (MTS) (KPC cells [1]) [%]	infiltration by CD8^+ T-cells (KPC cells [2])	number of Foxp3^+ regulatory T cell (Treg) (KPC cells [2])	increase in CD8^+/Tregs cell ratio compared to PBS control (KPC cells [2]) [fold]	tumor growth on the contralateral side (KPC cells [2])	histology of major organs (liver, spleen, kidney, lung, heart) [3]	reduction in cellularity of the hemopoetic cells in the bone marrow [3] [%]	cell surface fluorescence of CRT (calreticulin (CRT))	survival outcome (orthotopic KPC tumor [4])	circulatory half-life (t1/2) [5] [min]	HMGB1 release into the supernatant (HMGB1)	tumor inhibition (primary tumor weight) (orthotopic KPC tumor [6]) [%]	tumor free mice (out of 6) (KPC cells [2]; vaccination study)	encapsulation efficiency (EE %) ([7]; neutral pH 7.4) [%]	encapsulation efficiency (EE %) ([7]; pH 8.5, before lipid coating) [%]	encapsulation efficiency (EE %) ([7]; weak acidic pH 5.5) [%]
O=C1[O][Pt]2([NH][C@@H]3CCCC[C@H]3[NH]2)[O]C1=O [oxaliplatin]	70	increase in infiltration	reduced number	4.8	growth retardation	No major histological abnormalities	> 50	significant increase	No obvious benefit	21 ± 10.2	increase of released HMGB1	~5				
NC1CCCCC1N.[Pt+2] (stereo not shown) [DACHPt, (1,2-diaminocyclohexane)platinum(II)]		increase in infiltration	reduced number	6	growth retardation			significant increase			increase of released HMGB1		1	60	~75	25
